Values of other authors as cited in US6718687B2 (priority 2002, dated 2004).

Test system: mosquitoes

C=CC(O)CCCCC (centres unmarked) [Octenol, 1-octen-3-oL]
results from traps baited with Octenol and CO2 compared with CO2 alone (Octenol and CO2 versus CO2 alone): not significant
effectiveness as attractant for mosquitoes (Octenol at the release rate tested, unless CO2 was also used): not an effective attractant
